Reference: the supplement of paper PMC10307832

How the values were obtained:
Experiment in all cases: relative viability (nuclei count vs DMSO), 5 days (fraction); higher = more cells survive
Selisistat + Navitoclax = compound: C1CC(C2=C(C1)C3=C(N2)C=CC(=C3)Cl)C(=O)N [Selisistat] + CC1(C)CCC(c2ccc(Cl)cc2)=C(CN2CCN(c3ccc(C(=O)NS(=O)(=O)c4ccc(N[C@H](CCN5CCOCC5)CSc5ccccc5)c(S(=O)(=O)C(F)(F)F)c4)cc3)CC2)C1 [Navitoclax] (partner 0.5 µM)
How it was run: (§1)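 For relative viability, nuclei counts in treated wells were divided by those in vehicle wells. Lung cancer cell lines had been pin-tool dosed in 1536-well plates the day after seeding and cultured for 5 days, then fixed and stained in one step (final 0.05% Triton X-100, 1% formaldehyde, 1 ug/ml Hoechst) and imaged at 4×. Doses were one drug alone or a fixed anchor-drug dose plus five library-drug doses (not always all listed) in √10 steps, and values are duplicate-plate medians.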

Selisistat + Lapatinib = compound: C1CC(C2=C(C1)C3=C(N2)C=CC(=C3)Cl)C(=O)N [Selisistat] + CS(=O)(=O)CCNCc1ccc(-c2ccc3ncnc(Nc4ccc(OCc5cccc(F)c5)c(Cl)c4)c3c2)o1 [Lapatinib] (partner 2 µM)
How it was run: as §1

Serdemetan + Luminespib = compound: c1ccc2c(CCNc3ccc(Nc4ccncc4)cc3)c[nH]c2c1 [Serdemetan] + CCNC(=O)c1noc(-c2cc(C(C)C)c(O)cc2O)c1-c1ccc(CN2CCOCC2)cc1 [Luminespib] (partner 0.01 µM)
How it was run: as §1

Serdemetan + Dasatinib = compound: c1ccc2c(CCNc3ccc(Nc4ccncc4)cc3)c[nH]c2c1 [Serdemetan] + Cc1nc(Nc2ncc(C(=O)Nc3c(C)cccc3Cl)s2)cc(N2CCN(CCO)CC2)n1 [Dasatinib] (partner 0.075 µM)
How it was run: as §1

Cell Line | relative viability (Selisistat + Navitoclax; first compound 0.4 µM) | relative viability (Selisistat + Navitoclax; first compound 1.265 µM) | relative viability (Selisistat + Navitoclax; first compound 4 µM) | relative viability (Selisistat + Navitoclax; first compound 12.65 µM) | relative viability (Selisistat + Navitoclax; first compound 40 µM) | relative viability (Selisistat + Lapatinib; first compound 0.4 µM) | relative viability (Selisistat + Lapatinib; first compound 1.265 µM) | relative viability (Selisistat + Lapatinib; first compound 4 µM) | relative viability (Selisistat + Lapatinib; first compound 12.65 µM) | relative viability (Selisistat + Lapatinib; first compound 40 µM) | relative viability (Serdemetan + Luminespib; first compound 0.04 µM) | relative viability (Serdemetan + Luminespib; first compound 0.1265 µM) | relative viability (Serdemetan + Luminespib; first compound 1.265 µM) | relative viability (Serdemetan + Luminespib; first compound 4 µM) | relative viability (Serdemetan + Dasatinib; first compound 0.04 µM) | relative viability (Serdemetan + Dasatinib; first compound 0.1265 µM) | relative viability (Serdemetan + Dasatinib; first compound 0.4 µM) | relative viability (Serdemetan + Dasatinib; first compound 1.265 µM) | relative viability (Serdemetan + Dasatinib; first compound 4 µM) | relative viability (Serdemetan + Luminespib; first compound 0.4 µM)
PC-14 | 0.963 | 1.04 | 1.03 | 1.04 | 1.07 | 0.371 | 0.356 | 0.218 | 0.294 | 0.342 | 0.129 | 0.163 | 0.149 | 0.107 | 0.262 | 0.247 | 0.115 | 0.308 | 0.147 | 
NCI-H1666 | 1.04 | 1.04 | 0.911 | 0.77 | 0.916 | 0.751 | 0.574 | 0.437 | 0.589 | 0.472 | 1.01 | 0.992 | 0.869 | 0.811 | 0.797 | 0.736 | 0.829 | 0.597 | 0.663 | 1.05
NCI-H2085 | 1.16 | 1.15 | 1.12 | 1.15 | 1.21 | 0.818 | 0.797 | 0.725 | 0.753 | 0.724 | 0.454 | 0.394 | 0.382 | 0.354 | 0.242 | 0.222 | 0.278 | 0.269 | 0.166 | 0.457
NCI-H1734 | 0.961 | 0.764 | 0.822 | 0.858 | 0.873 | 1.03 | 1.04 | 1.17 | 1.02 | 1.16 | 0.198 | 0.24 | 0.15 | 0.186 | 0.384 | 0.371 | 0.402 | 0.117 | 0.131 | 0.196
